The source of these data is US5840718A, “22-epimeric-1,25-dihydroxy-16,22,23-triene-cholecalciferol” (Hoffmann-La Roche Inc., priority 1997, dated 1998).

Where two headings read alike, the source gives them in different places.

One data set deals with HL-60 cells. In words: Induction of HL-60 Cell Differentiation (NBT reduction). In kind it is cell-based. As to conditions: 3 days, relative to maximal differentiation with 100-1000 nM calcitriol, mean of 3 wells, 4320 min, read-out: ED50, concentration leading to 50% of maximal differentiation. The protocol:
Induction of HL-60 Cell Differentiation
The induction of differentiation of HL-60 cells was assayed by measuring their oxidative burst potential via the reduction of nitrobluetetrazolium (NBT).
HL-60 cells (30,000 cells in 90 μl of supplemented RPMI medium) were seeded into flat-bottomed microliter wells. Immediately after seeding, 10 μl of test compounds listed below in Table II diluted in supplemented RPMI medium were added to the wells to yield final concentrations of between 10^-11 and 10^-6 M (starting from stock solutions of 10^-2 M in ethanol, stored at -20° C. and protected from light). After 3 days, medium was removed from the wells with a multichannel pipette and replaced with 100 μl of NBT solution (1 mg/ml in phosphate buffered saline with 200 nM phorbol myristate acetate). Following an additional hour incubation at 37° C. the NBT solution was removed and 100 μl of 10% sodium dodecyl sulfate in 0.01N HCl was added. The amount of the reduced NBT was quantified photometrically at 540 nm using an automated plate reader. The mean of 3 wells was calculated. […] Values were expressed as percent of maximal differentiation achieved with 100-1000 nM calcitriol in the same experiment.

A further data set concerns Sebaceous cells. Nature of the data set: Inhibition of Sebaceous Cell Proliferation. It counts as cell-based, human. As to conditions: read-out: ED50, amount of compound necessary to inhibit the proliferation of the sebaceous cells by 50%. The protocol: Inhibition of Sebaceous Cell Proliferation
Sebaceous cells were isolated from adult human sebaceous glands, derived from facial skin removed during cosmetic surgery. This method is described in an article by Doran et al. in J. Invest. Dermatol. 96:341-348 (1991).
The cells were cultured in Iscove's medium containing 10% fetal calf-serum and 4 μg/ml dexamethasone on a layer of growth-arrested 3T3 mouse fibroblasts.
Cells were plated in medium without the test compound and then given the compound in fresh medium 24-48 hours after the initial plating. The cultures were given fresh medium, containing the test compound, every 48 hours. On the day of harvesting, the cultures were rinsed with 0.03% ethylenediamine tetraacetic acid (EDTA) in phosphate buffered saline (PBS), to remove only the 3T3 fibroblasts. The remaining sebocyte colonies were incubated in 0.05% trypsin/0/03% EDTA to create a single cell suspension of sebocytes. The cells were suspended, mixed vigorously to prepare a single cell suspension, and counted in a hemocytometer.
All compounds were handled in the following manner. Stock solutions were made up as 10-^2 M solutions in degassed 100% ethanol and stored at -20° C. in the dark. Solutions were never used after storage of more than a month. During experimental use the solutions, which had been aliquoted, were thawed once and used by diluting directly into complete medium to the appropriate concentration.
The results are summarized in Table III below as the amount of compound necessary to inhibit the proliferation of the sebaceous cells by 50% (ED50) in μM as compared to a control, vehicle treated only, culture.

Data set [1] has as its system γ-Interferon Release in Human T-cells. In words: Inhibition of γ-Interferon Release in Human T-cells (ELISA). In kind it is cell-based. As to conditions: PHA-stimulated human lymphocytes, IFN-γ by ELISA, days 3 and 4, read-out: IC50, concentration leading to 50% of control values (IFN-γ). The protocol:
Inhibition of γ-Interferon Release in Human T-cells
Mononuclear cells were isolated from venous blood of healthy donors by centrifugation of buffy coat leucocytes atop Ficoll-Paque. […] 100 μl of this cell suspension were seeded into flat-bottom microtiter wells and stimulated with 1 μg/ml of the T-cell specific mitogen phytohemagglutinine (PHA). Immediately after seeding, the test compounds listed below in Table IV were added to yield final concentrations of between 1×10^-11 M-1×10^-6 M. All tests were run in the quadruplicates.
On days 3 and 4, medium was removed from the wells and the content of IFN-γ was analyzed by ELISA. Values are expressed as percent of controls (samples without test compound).

The next data set relates to Human T-cell. In words: Inhibition of Human T-cell Proliferation (3H-thymidine). As to conditions: PHA-stimulated human lymphocytes, 3H-thimidine after 3 and 4 days, read-out: IC50, concentration leading to 50% of control values (T-cell proliferation). It counts as cell-based. The protocol: Inhibition of Human T-cell Proliferation
Mononuclear cells were isolated from venous blood of healthy donors by centrifugation of buffy coat leucocytes atop Ficoll-Paque. […] of this cell suspension were seeded into flat-bottom microtiter wells and stimulated with […] of PHA. Immediately after seeding, the test compounds listed below in Table V were added to yield final concentrations of between 1×10^-11 M-1×10^-6 M. All tests were run in the quadruplicates.
After 3 and 4 days, ^3 H-thymidine (5 Ci/mmol) was added to wells at a concentration of […]. Cells were pulse-labeled for the last 6 hours of the growth period. Cells were then harvested on to a 96 well filter plate using a cell harvester. After drying at 40° C. under vacuum for 20-30 minutes, 20 μl of scintillor were added and the radioactivity bound to the filters was counted. Values are expressed as percent controls (samples without test compounds).

Data set [2] in a line: Calcium tolerance test in mice. It counts as in vivo. As to conditions: daily subcutaneous, 4 consecutive days, dose giving zero weight gain during 5 day treatment period. The text has this:
Calcium tolerance test in mice
Profound changes in calcium homeostasis strongly affect the weight development of mice.
Mice (25-30 g body weight) received daily subcutaneous administrations of the compound for 4 consecutive days. Body weight was registered just before and at the end of a […] treatment period. The "highest tolerated dose" (HTD) is the dose which results in zero weight gain during this treatment period.

The test system of another data set is HaCaT cell line. Nature of the data set: Inhibition of Keratinocyte Proliferation (3H-thymidine uptake, HaCaT cells). It counts as cell-based. The conditions noted are these: Homo sapiens, 3H-thymidine incorporation, 6 days, read-out: IC50, concentration leading to 50% of control values.

On to `C=C1/C(=C\C=C2/CCC[C@]3(C)C([C@H](C)C=C=CC(C)(C)O)=CC[C@@H]23)C[C@@H](O)C[C@@H]1O` [1,25-Dihydroxy-16,22R,23-triene-cholecalciferol], for which, in the data set with HL-60 cells, the EC50 amounted to 0.22 nM. Besides, the IC50 was 1 nM with Sebaceous cells (adult human facial sebaceous cells, vs vehicle treated control, listed as 1α,25-Dihydroxy-16,22R,23-triene-cholecalciferol); 0.05 nM in data set [1]; 0.55 nM in the data set on Human T-cell. In data set [2], the “HTD, highest tolerated dose” value was 0.0025 mg/kg.

Consider `C=C1/C(=C\C=C2/CCC[C@]3(C)C([C@H](C)C=C=CC(C)(C)O)=CC[C@@H]23)C[C@@H](O)C[C@@H]1O` [1,25-Dihydroxy-16,22S,23-triene-cholecalciferol] [listing 1 of 2 here], for which the IC50 in the data set with HaCaT cell line is 40 nM.

With `C=C1/C(=C\C=C2/CCC[C@]3(C)C([C@H](C)C=C=CC(C)(C)O)=CC[C@@H]23)C[C@@H](O)C[C@@H]1O` [1,25-Dihydroxy-16,22S,23-triene-cholecalciferol] [listing 2 of 2 here], the EC50 with HL-60 cells amounted to 4.8 nM. In addition, the IC50 in the data set with Sebaceous cells (adult human facial sebaceous cells, vs vehicle treated control, listed as 1α,25-Dihydroxy-16,22S,23-triene-cholecalciferol) worked out at 10 nM; in data set [1], 3 nM; in the data set on Human T-cell, 6 nM. The “HTD, highest tolerated dose” value in data set [2] was determined as 0.05 mg/kg.

As for `C=C1/C(=C\C=C2/CCC[C@]3(C)[C@@H]([C@H](C)CCCC(C)(C)O)CC[C@@H]23)C[C@@H](O)C[C@@H]1O` [1,25-Dihydroxy-cholecalciferol, reference compound], the IC50 in the data set on HaCaT cell line turned out to be 55 nM; in the data set on Sebaceous cells (Homo sapiens), 50 nM; in data set [1] (T-cell), 0.8 nM; with Human T-cell (T-cell) it was 10 nM.
